The values that follow come from US20070270350A1, “Methods and Compositions for the Prevention and Treatment of Inflammatory Diseases or Conditions” (MUSC FOUNDATION FOR RESEARCH DEVELOPMENT, priority 2003, published 2007).

Assay [1] concerns EAE in SJL/J mice. Nature of the assay: Active and passive EAE in SJL/J mice treated with lovastatin. Conditions: i.p. t or 5 mg/kg lovastatin every day, days 0-60 or started on day 10, p<0.001. The assay is classed as in vivo, mouse.
In assay [2] the test system is T cells. Nature of the assay: Cytokine production by PLP139-151-primed DLN cells and naïve T cells. The assay is classed as cell-based, mouse. Conditions: lovastatin 10 and 20 μM, p<0.0001. As for the experimental part: (A), (C), (E), (G), and (I) DNL cells were isolated on day 10 from PLP139-151 immunized SJL/J mice and cultured in vitro at 5×10^6 cells/ml in the presence of PLP139-151 (5 μg/ml) and lovastatin (10 and 20 μM). (B) (D), (F), (H), and (J) Naïve T cells (98% purified) isolated from lymph nodes were cultured in anti-CD3 and anti-CD28-precoated plates at 1×10^6 cells/ml with lovastatin (10 and 20 μM). The supernatants were collected at 48 h (for IFN-γ and TNF-α) and 120 h (for IL-4, IL-5, and IL-10) for cytokine measurements. […] The values are the means of triplicate determinations at each point, and the error bars represent +/−SD.

The test system of assay [3] is NF-κβ. The assay can be described thus: Nuclear translocation of NF-κβ in anti-CD3/CD28 stimulated naïve T cells. Conditions: lovastatin 2 h pretreatment, dose-dependent (5-50 μM); anti-CD3 and CD28 4 h. The assay is classed as cell-based, mouse.
Assay [4] deals with KA-treated rats. The assay can be described thus: KA-induced seizure model (epilepsy model), rat hippocampus. Conditions: statin 10 mg/kg orally, 3 days after KA. The assay is classed as in vivo. As for the experimental part:
FIG. 45. Experimental design for the use of statins as a therapeutic for kinic acid induced seizures (epilepsy model).
FIG. 46. […] The rats were orally pre-treated (7 days before) with atorvastatin (LP; 10 mg/kg) prior to KA (10 mg/kg, i.p.). At 3 days after KA injection, neuronal cell death in hippocampus was examined using cresyl violet stain.
FIG. 47. […] The rats were orally pre-treated (7 days before) with atorvastatin (LP; 10 mg/kg) prior to KA (10 mg/kg, i.p.). At 3 days after KA injection, infiltration of macrophages in the CA1 and CA3 regions of the hippocampus was examined using immunofluorescent labeling against for ED-1, as a marker of monocytes.
The rats were orally pre-treated (7 days before) with atorvastatin (LP; 10 mg/kg) prior to KA (10 mg/kg, i.p.). At 3 days after KA injection, neuronal cell death in the CA1 (A) and CA3 (B) regions of the hippocampus was examined using TUNNEL assay.
FIG. 49. […] The rats were orally pre-treated (7 days before) with lovastatin (Lov; 10 mg/kg) prior to KA (10 mg/kg, i.p.). At 3 days after KA injection, neuronal cell death in hippocampus was examined using cresyl violet stain.
FIG. 50A-C. […] The rats were orally pre-treated (7 days before) with atorvastatin (LP; 10 mg/kg) prior to KA (10 mg/kg, i.p.). At 3 days after KA injection, the expression of inflammatory genes (TNF-α, IL-1β, and iNOS) in hippocampus using real time PCR. The expression of each gene was normalized with GAPDH expression.
FIG. 51A-C. […] The rats were orally pre-treated (7 days before) with lovastatin (Lov; 10 mg/kg) prior to KA (10 mg/kg, i.p.). At 3 days after KA injection, the expression of inflammatory genes (TNF-α, IL-1β, and iNOS) in hippocampus using real time PCR. The expression of each gene was normalized with GAPDH expression.
Seizure index: stage 1, facial clonus; stage 2, nodding; stage 3, forelimb clonus; stage 4, forelimb clonus with rearing; stage 5, rearing, jumping, and falling. The rats were orally pre-treated (7 days before) with lovastatin or atorvastatin (Lov or LP; 10 mg/kg) prior to KA (10 mg/kg, i.p.).

Assay [5] deals with Rat Primary Astrrocytes. Conditions: LPS 1.0 μg/ml, 24 h.
In assay [6] the test system is Microglia. Conditions: 10 μM lovastatin or 5 mM NaPA 8 h, LPS 1.0 μg/ml, 24 h.
The test system of assay [7] is Macrophages. Conditions: 10 μM lovastatin or 5 mM NaPA 8 h, LPS 1.0 μg/ml, 24 h.
The mark [8] stands for this setting: 48 h, PLP-primed and naïve T cells.

Regarding `CC[C@H](C)C(=O)O[C@H]1C[C@@H](C)C=C2C=C[C@H](C)[C@H](CC[C@@H]3C[C@@H](O)CC(=O)O3)[C@H]21` [Lovastatin, lovastatin], the “severity of EAE disease (mean clinical scores)” value in assay [1] is “significantly less”. Further, in assay [2] (setting [8]), the IFN-γ in supernatants result is “significantly reduced”. Moreover, the TNF-α in supernatants entry in assay [2] (setting [8]) was “significantly reduced”. Further, the IL-4 in supernatants result in assay [2] (120 h) was “significantly increased”. In assay [2] (120 h), the IL-5 in supernatants result is “significantly increased”. For the same compound, in assay [2] (120 h), the IL-10 in supernatants result is given as “significantly increased”. Besides, the “nuclear translocation of NF-κβ” value in assay [3] is “inhibits”. Besides, the “KA-induced neuronal cell death in hippocampus (cresyl violet stain)” value in assay [4] (7 days before KA 10 mg/kg i.p.) was “inhibited”. The “expression of inflammatory genes (TNF-α, IL-1β, and iNOS) induced by KA in hippocampus (real time PCR)” value in assay [4] (7 days before KA) was “inhibited”. Also, the TNF-α in assay [5] (10 μM lovastatin or 5 mM NaPA 8 h, LPS only 5.3 +/− 0.8) is recorded as 0.3 +/− 0.05 ng/24 h/mg protein; in assay [6] (LPS only 14.5 +/− 2.1), 0.9 +/− 0.1 ng/24 h/mg protein; in assay [7] (LPS only 18.6 +/− 2.3), 1.2 +/− 0.1 ng/24 h/mg protein. In addition, the Il-1β was 0.8 +/− 0.1 ng/24 h/mg protein in assay [5] (10 μM lovastatin or 5 mM NaPA 8 h, LPS only 10.4 +/− 1.5); 2.1 +/− 0.3 ng/24 h/mg protein in assay [6] (LPS only 28.2 +/− 3.4); 2.3 +/− 0.3 ng/24 h/mg protein in assay [7] (LPS only 34.6 +/− 4.5). In addition, the IL-6 is on record as 0.8 +/− 0.1 ng/24 h/mg protein in assay [5] (10 μM lovastatin or 5 mM NaPA 8 h, LPS only 136.5 +/− 16.8); 7.8 +/− 1.1 ng/24 h/mg protein in assay [6] (LPS only 295.6 +/− 33.5); 8.3 +/− 0.6 ng/24 h/mg protein in assay [7] (LPS only 350.0 +/− 27.6). Further, the NO is 5.2 +/− 0.4 n mol/24 h/mg protein in assay [5] (10 μM lovastatin or 5 mM NaPA 8 h serum free, LPS only 25.3 +/− 3.2); 5.9 +/− 0.4 n mol/24 h/mg protein in assay [6] (LPS only 81.2 +/− 6.9); 7.2 +/− 0.9 n mol/24 h/mg protein in assay [7] (LPS only 118.5 +/− 12.5).
